The record followed here is patent US8895571B2, “Isoindolinone and pyrrolopyridinone derivatives as Akt inhibitors” (Incyte Corporation, priority 2011, dated 2014).

What all share (format): biochemical
One assay addresses T1, Full length Akt1 (Homo sapiens, UniProt P31749).
T1 construct: Full length Akt1 (cat #P2999); purchased PerkinElmer P2999
Kind of assay: In vitro Akt kinase enzymatic assay (HTRF), Akt1. To be noted: 0.4 nM Akt1, substrate solution with 5 mM ATP, 25° C. 1 hr. Here is the method: (§1) Compounds herein were tested for inhibitory activity of Akt targets according to the following in vitro assay. Full length Akt1 (cat #P2999), Akt2 (cat #PV3184), Akt3 (cat #PV3185), peptide substrate, Ulight-Crosstide (cat #TRF0106-M), Ultra-Europium anti-phospho-Crosstide (cat #TRF-0202-M), and 10×LANCE detection buffer (cat #CR97-100) were purchased from PerkinElmer. In general, assay buffer conditions were chosen based on obtaining optimal enzymatic and linear activities. The assay buffer contains 50 mM HEPES, 10 mM MgCl2, 5 mM DTT, 0.005% Tween20 at pH 7.8. Compound stock (0.001 mM) was prepared in DMSO. The compound plate was prepared by 3-fold and 11-point serial dilutions. 0.5 μL of the compound in DMSO was transferred from the compound plate to the assay plate. Enzyme solution (0.4 nM of Akt1, 0.6 nM of Akt2 or 0.6 nM of Akt3) was prepared in the assay buffer. Note that the enzyme concentration given is based on the given stock concentration reported by the vendor. 0.1 μM substrate solution was prepared in the assay buffer with addition of 5 mM ATP. 10 μL of the enzyme solution was added to the assay plate and then 10 μL of substrate solution was added to the assay plate. The plate was protected from light and the reaction was incubated at 25° C. for 1 hr. The reaction was stopped by adding 10 μL of a solution containing 30 mM EDTA, and 3 nM Ultra Europium anti-phospho Crosstide in 1× detection buffer. The plate was incubated for 15-30 min at room temperature and HTRF (homogenous time resolved fluorescence) was measured on a plate reader. Percentage of inhibition was calculated for each concentration and IC50 value was generated from curve fitting. See Table 8 for data related to compounds of the examples.
On the technique in general: In TR-FRET formats the signal depends on donor and acceptor labels being close together.

In another assay the target is T2, Full length Akt2 (Homo sapiens, UniProt P31751).
T2 construct: Full length Akt1 (cat #P2999), Akt2 (cat #PV3184); purchased PerkinElmer PV3184
T2 sequence (P31751 whole entry): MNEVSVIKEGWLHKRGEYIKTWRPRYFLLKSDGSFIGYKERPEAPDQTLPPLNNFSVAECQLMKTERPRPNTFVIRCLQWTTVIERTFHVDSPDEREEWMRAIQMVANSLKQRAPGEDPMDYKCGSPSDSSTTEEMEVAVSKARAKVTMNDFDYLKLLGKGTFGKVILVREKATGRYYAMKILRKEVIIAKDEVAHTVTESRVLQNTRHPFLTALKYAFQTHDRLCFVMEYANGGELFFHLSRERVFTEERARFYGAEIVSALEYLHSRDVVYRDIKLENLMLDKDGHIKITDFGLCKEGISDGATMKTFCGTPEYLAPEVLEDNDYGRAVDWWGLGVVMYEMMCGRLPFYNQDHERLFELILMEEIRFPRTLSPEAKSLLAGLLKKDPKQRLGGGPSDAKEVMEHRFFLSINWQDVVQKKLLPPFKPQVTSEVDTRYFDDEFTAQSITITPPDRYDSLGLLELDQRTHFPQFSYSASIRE
Kind of assay: In vitro Akt kinase enzymatic assay (HTRF), Akt2. Conditions: 0.6 nM Akt2, substrate solution with 5 mM ATP, 25° C. 1 hr. On the procedure:
as §1

In a further assay the target is T3, Full length Akt3 (Homo sapiens, UniProt Q9Y243).
T3 construct: Full length Akt1 (cat #P2999), Akt2 (cat #PV3184), Akt3 (cat #PV3185); purchased PerkinElmer PV3185
T3 sequence (Q9Y243 whole entry): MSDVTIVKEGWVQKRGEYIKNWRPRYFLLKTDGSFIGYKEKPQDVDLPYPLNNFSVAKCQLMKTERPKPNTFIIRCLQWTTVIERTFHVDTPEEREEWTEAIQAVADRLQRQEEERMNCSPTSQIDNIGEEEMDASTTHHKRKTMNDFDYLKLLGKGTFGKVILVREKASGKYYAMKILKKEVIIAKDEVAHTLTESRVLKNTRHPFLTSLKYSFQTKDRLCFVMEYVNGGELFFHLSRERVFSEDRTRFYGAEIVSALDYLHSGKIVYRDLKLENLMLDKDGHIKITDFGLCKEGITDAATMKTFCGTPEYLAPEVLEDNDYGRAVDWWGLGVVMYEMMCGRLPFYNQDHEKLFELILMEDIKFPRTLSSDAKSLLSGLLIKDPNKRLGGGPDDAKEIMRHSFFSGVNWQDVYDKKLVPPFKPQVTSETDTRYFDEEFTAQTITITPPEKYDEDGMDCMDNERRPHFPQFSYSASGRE
Kind of assay: In vitro Akt kinase enzymatic assay (HTRF), Akt3. To be noted: 0.6 nM Akt3, substrate solution with 5 mM ATP, 25° C. 1 hr. Here is the method:
as §1

In a further assay the target is T4, Full length PKA (Homo sapiens, UniProt P17612).
T4 construct: Full length PKA (cat #P2912); purchased Invitrogen P2912
Kind of assay: PKA in vitro enzymatic assay (HTRF). To be noted: 0.035 nM enzyme solution, substrate solution with 5 mM ATP, 25° C. 1 hr. Here is the method:
Full length PKA (cat #P2912), peptide substrate, fluorescein CREBtide peptide (cat #PV3508), Tb-Crebtide p-S133 Ab (cat #PV3566), and Lanthascreen TR-FRET Dilution Buffer stored (part # PV3574) were purchased from Invitrogen. In general, assay buffer conditions were chosen based on obtaining optimal and linear enzymatic activities. The assay buffer contains 50 mM HEPES, 10 mM MgCl2, 5 mM DTT, 0.005% Tween20 at pH 7.8. Compound stock (0.001 mM) was prepared in DMSO. The compound plate was prepared by 3-fold and 11-point serial dilutions. 0.5 μL of the compound in DMSO was transferred from the compound plate to the assay plate. 0.035 nM enzyme solution was prepared in the assay buffer. Note that the enzyme concentration given is based on the given stock concentration reported by the vendor. 0.1 μM substrate solution was prepared in the assay buffer with addition of 5 mM ATP. 10 μL of the enzyme solution was added to the assay plate and then 10 μL of substrate solution was added to the assay plate. The plate was protected from light and the reaction was incubated at 25° C. for 1 hr. The reaction was stopped by adding 10 μL of a solution containing 30 mM EDTA, and 1.5 nM Tb-Crebtide p-S133 Ab in 1× detection buffer. The plate was incubated for 15-30 min at room temperature and HTRF (homogenous time resolved fluorescence) was measured on a plate reader. Percentage of inhibition was calculated for each concentration and IC50 value was generated from curve fitting. See Table 8 for data related to compounds of the examples.

T1 sequence (P31749 whole entry): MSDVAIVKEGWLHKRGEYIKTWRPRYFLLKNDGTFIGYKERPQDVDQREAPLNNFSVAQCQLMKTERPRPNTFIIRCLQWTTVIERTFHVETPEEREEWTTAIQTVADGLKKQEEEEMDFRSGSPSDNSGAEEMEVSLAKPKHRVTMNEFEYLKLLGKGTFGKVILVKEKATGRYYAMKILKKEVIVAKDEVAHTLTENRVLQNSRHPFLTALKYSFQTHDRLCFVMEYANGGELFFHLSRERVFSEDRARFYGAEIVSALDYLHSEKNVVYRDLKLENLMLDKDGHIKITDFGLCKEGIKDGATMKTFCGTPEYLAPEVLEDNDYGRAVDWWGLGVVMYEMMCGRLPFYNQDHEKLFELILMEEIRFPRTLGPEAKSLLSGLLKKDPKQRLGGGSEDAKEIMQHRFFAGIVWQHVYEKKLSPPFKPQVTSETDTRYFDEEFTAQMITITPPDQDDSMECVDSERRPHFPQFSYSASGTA

In the case of `Cn1nccc1-c1ccc2c(n1)CN([C@H](CN)Cc1ccccc1)C2=O` [Example 111, 6-[(1S)-2-amino-1-benzylethyl]-2-(1-methyl-1H-pyrazol-5-yl)-6,7-dihydro-5H-pyrrolo[3,4-b]pyridin-5-one], the IC50 was 0.5 to 5 µM on Full length Akt1, 0.5 to 5 µM at Full length Akt2, over 5 µM at Full length Akt3 and over 5 µM against Full length PKA.
For the compound `COc1ccc(C(CN)N2Cc3cc(-c4ccnn4C)ccc3C2=O)cc1` (centres unmarked) [Example 120, 2-[2-amino-1-(4-methoxyphenyl)ethyl]-5-(1-methyl-1H-pyrazol-5-yl)isoindolin-1-one], the IC50 on Full length Akt1, on Full length Akt2, on Full length Akt3 and at Full length PKA was over 5 µM in each case.
On to `Cn1ncc(Cl)c1-c1ccc2c(n1)CN([C@H](CN)Cc1ccccc1)C2=O` [Example 112, 6-[(1S)-2-amino-1-benzylethyl]-2-(4-chloro-1-methyl-1H-pyrazol-5-yl)-6,7-dihydro-5H-pyrrolo[3,4-b]pyridin-5-one], for which the IC50 against Full length Akt1 is 0.5 to 5 µM; against Full length Akt2, 0.5 to 5 µM; at Full length Akt3, 0.5 to 5 µM; at Full length PKA it was over 5 µM.
Regarding `COc1cc(C[C@@H](CN)N2Cc3cc(-c4ccnn4C)ccc3C2=O)ccn1` [Example 77, 2-{(1S)-2-amino-1-[(2-methoxypyridin-4-yl)methyl]ethyl}-5-(1-methyl-1H-pyrazol-5-yl)isoindolin-1-one], the IC50 on Full length Akt1 is 0.5 to 5 µM; at Full length Akt2, over 5 µM; at Full length Akt3, over 5 µM; against Full length PKA, over 5 µM.
For `Cn1ncc(-c2nccs2)c1-c1ccc2c(c1)CN([C@H](CN)Cc1cccc(F)c1)C2=O` [Example 20, 2-[(1S)-2-amino-1-(3-fluorobenzyl)ethyl]-5-[1-methyl-4-(1,3-thiazol-2-yl)-1H-pyrazol-5-yl]isoindolin-1-one], the IC50 against Full length Akt1 is under 0.5 µM; on Full length Akt2, 0.5 to 5 µM; against Full length Akt3, 0.5 to 5 µM; against Full length PKA it was over 5 µM.
Regarding `Cn1ncc(Cl)c1-c1ccc2c(c1)CN(C(CN)c1ccc(F)cc1)C2=O` (centres unmarked) [Example 124, 2-[2-amino-1-(4-fluorophenyl)ethyl]-5-(4-chloro-1-methyl-1H-pyrazol-5-yl)isoindolin-1-one], the IC50 at Full length Akt1 was 0.5 to 5 µM; against Full length Akt2, 0.5 to 5 µM; at Full length Akt3 it was 0.5 to 5 µM; on Full length PKA, over 5 µM.
With `Cn1cc(-c2cccc(C[C@@H](CN)N3Cc4cc(-c5c(Cl)cnn5C)ccc4C3=O)c2)cn1` [Example 70, 2-{(1S)-2-amino-1-[3-(1-methyl-1H-pyrazol-4-yl)benzyl]ethyl}-5-(4-chloro-1-methyl-1H-pyrazol-5-yl)isoindolin-1-one], the IC50 on Full length Akt1 is under 0.5 µM; on Full length Akt2 it was over 5 µM; at Full length Akt3, 0.5 to 5 µM; against Full length PKA, over 5 µM.
On to `Cn1ncc(-c2ccc(F)nc2)c1-c1ccc2c(c1)CN([C@H](CN)Cc1cccc(F)c1)C2=O` [Example 25, 2-[(1S)-2-amino-1-(3-fluorobenzyl)ethyl]-5-[4-(6-fluoropyridin-3-yl)-1-methyl-1H-pyrazol-5-yl]isoindolin-1-one], for which the IC50 at Full length Akt1, on Full length Akt2, at Full length Akt3 and against Full length PKA was over 5 µM in each case.
On to `COc1ncccc1-c1cnn(C)c1-c1ccc2c(c1)CN([C@H](CN)Cc1cccc(F)c1)C2=O` [Example 27, 2-[(1S)-2-amino-1-(3-fluorobenzyl)ethyl]-5-[4-(2-methoxypyridin-3-yl)-1-methyl-1H-pyrazol-5-yl]isoindolin-1-one], for which the IC50 at Full length Akt1, on Full length Akt2, on Full length Akt3 and at Full length PKA was over 5 µM throughout.
Consider `Cn1nccc1-c1ccc2c(c1)CN([C@H](CN)CC1CC1)C2=O` [Example 136, 2-[(1S)-2-amino-1-(cyclopropylmethyl)ethyl]-5-(1-methyl-1H-pyrazol-5-yl)isoindolin-1-one], for which the IC50 was under 0.5 µM against Full length Akt1, 0.5 to 5 µM against Full length Akt2, over 5 µM at Full length Akt3 and over 5 µM at Full length PKA.
On to `Cn1ncc(-c2ccc3ccccc3c2)c1-c1ccc2c(c1)CN([C@H](CN)Cc1cccc(F)c1)C2=O` [Example 21, 2-[(1S)-2-amino-1-(3-fluorobenzyl)ethyl]-5-[1-methyl-4-(2-naphthyl)-1H-pyrazol-5-yl]isoindolin-1-one], for which the IC50 against Full length Akt1 was 0.5 to 5 µM; against Full length Akt2, over 5 µM; against Full length Akt3, under 0.5 µM; at Full length PKA, over 5 µM.
As to `CCSCc1cnn(C)c1-c1cc2c(cn1)C(=O)N([C@H](CN)Cc1cccc(F)c1)C2` [Example 98, 2-[(1S)-2-amino-1-(3-fluorobenzyl)ethyl]-6-[4-(ethylthiomethyl)-1-methyl-1H-pyrazol-5-yl]-1,2-dihydro-3H-pyrrolo[3,4-c]pyridin-3-one], the IC50 on Full length Akt1 was 0.5 to 5 µM; against Full length Akt2, over 5 µM; against Full length Akt3 it was 0.5 to 5 µM; against Full length PKA it was over 5 µM.
Take `CNC[C@H](Cc1cccc(F)c1)N1Cc2cc(-c3c(Cl)cnn3C)ccc2C1=O` [Example 30, 5-(4-chloro-1-methyl-1H-pyrazol-5-yl)-2-[(1S)-1-(3-fluorobenzyl)-2-(methylamino)ethyl]isoindolin-1-one]: the IC50 is under 0.5 µM against Full length Akt1, 0.5 to 5 µM on Full length Akt2, 0.5 to 5 µM at Full length Akt3 and over 5 µM against Full length PKA.
For the compound `Cn1ncc(Cl)c1-c1ccc2c(c1)CN([C@H](CN)Cc1ccc(C#N)cc1)C2=O` [Example 63, 4-{(2S)-3-amino-2-[5-(4-chloro-1-methyl-1H-pyrazol-5-yl)-1-oxo-1,3-dihydro-2H-isoindol-2-yl]propyl}benzonitrile], the half-maximal inhibitory concentration (IC50) at Full length Akt1 was under 0.5 µM; on Full length Akt2, 0.5 to 5 µM; at Full length Akt3 it was 0.5 to 5 µM; against Full length PKA, over 5 µM.
On to `Cn1nccc1-c1ccc2c(c1)CN([C@H](CN)Cc1cccc(-c3ccsc3)c1)C2=O` [Example 84, 2-{(1S)-2-amino-1-[3-(3-thienyl)benzyl]ethyl}-5-(1-methyl-1H-pyrazol-5-yl)isoindolin-1-one], for which the IC50 at Full length Akt1 was under 0.5 µM; against Full length Akt2, 0.5 to 5 µM; against Full length Akt3, 0.5 to 5 µM; on Full length PKA, over 5 µM.
On to `CN(C)CC(c1ccccc1)N1Cc2cc(-c3c(Cl)cnn3C)ccc2C1=O` (centres unmarked) [Example 121, 5-(4-chloro-1-methyl-1H-pyrazol-5-yl)-2-[2-(dimethyl-amino)-1-phenylethyl]iso-indolin-1-one], for which the IC50 against Full length Akt1, against Full length Akt2, against Full length Akt3 and on Full length PKA was over 5 µM in each case.
Turning to `COc1ccc(C(CN)N2Cc3cc(-c4c(Cl)cnn4C)ccc3C2=O)cc1` (centres unmarked) [Example 126, 2-[2-amino-1-(4-methoxyphenyl)ethyl]-5-(4-chloro-1-methyl-1H-pyrazol-5-yl)isoindolin-1-one], the concentration for half-maximal inhibition (IC50) at Full length Akt1, at Full length Akt2, against Full length Akt3 and on Full length PKA was over 5 µM each time.

In general, IC50 refers to the concentration that inhibits the measured activity by half. A low value points to inhibition by little substance.
